Experimental data as given in the NIST ThermoML archive (doi:10.1016/j.fluid.2014.09.031).

Experiment: xn = mol fraction of the nth substance listed
Conditions: 298.15 K, 101 kPa, Liquid, Vibrating tube method

CC[NH3+].O=[N+]([O-])[O-] [ethylammonium nitrate] + CN1CCCC1=O
Conditions | mass density [kg/m3]
x1 = 0.049 | 1040.83
x1 = 0.138 | 1059.94
x1 = 0.166 | 1065.8
x1 = 0.223 | 1076.59
x1 = 0.242 | 1080.27
x1 = 0.292 | 1089.23
x1 = 0.347 | 1098.75
x1 = 0.413 | 1109.61
x1 = 0.457 | 1116.43
x1 = 0.48 | 1119.62
x1 = 0.54 | 1129.36
x1 = 0.592 | 1137.95
x1 = 0.63 | 1143.72
x1 = 0.684 | 1153.22
x1 = 0.763 | 1167.68
x1 = 0.83 | 1179.62
x1 = 0.915 | 1195.54
x1 = 0.981 | 1207.67
x1 = 1 | 1210.76

CN1CCCC1=O [N-methylpyrrolidone] + CCC[NH3+].O=[N+]([O-])[O-]
Conditions | mass density [kg/m3]
x2 = 0 | 1028.25

CCCC[NH3+].O=[N+]([O-])[O-] [n-butylammonium nitrate] + CN1CCCC1=O
Conditions | mass density [kg/m3]
x1 = 0.048 | 1036.44
x1 = 0.108 | 1044.94
x1 = 0.163 | 1051.72
x1 = 0.267 | 1062.31
x1 = 0.365 | 1069.91
x1 = 0.439 | 1074.93
x1 = 0.538 | 1080.43
x1 = 0.67 | 1088.06
x1 = 0.843 | 1097.2
x1 = 1 | 1105.49

CN1CCCC1=O [N-methylpyrrolidone] + CC[NH3+].O=[N+]([O-])[O-]
Conditions | mass density [kg/m3]
x2 = 0 | 1028.25

CN1CCCC1=O [N-methylpyrrolidone] + CCCC[NH3+].O=[N+]([O-])[O-]
Conditions | mass density [kg/m3]
x2 = 0 | 1028.25

CCC[NH3+].O=[N+]([O-])[O-] [propylammonium nitrate] + CN1CCCC1=O
Conditions | mass density [kg/m3]
x1 = 0.046 | 1038.38
x1 = 0.167 | 1059.42
x1 = 0.202 | 1064.53
x1 = 0.263 | 1073.3
x1 = 0.329 | 1081.53
x1 = 0.406 | 1090.6
x1 = 0.461 | 1096.52
x1 = 0.551 | 1105.72
x1 = 0.582 | 1108.68
x1 = 0.628 | 1113.18
x1 = 0.661 | 1116.42
x1 = 0.721 | 1122.67
x1 = 0.781 | 1128.74
x1 = 0.808 | 1130.96
x1 = 0.862 | 1136.73
